For this experiment, the target named is S. pneumoniae Topoisomerase IV ATPase (ParE) (Streptococcus pneumoniae serotype 4, UniProt Q59961). Put plainly: S. pneumoniae Topoisomerase IV ATPase inhibition. The class given is biochemical. The conditions noted are these: values marked * are an average of two or more data points, read-out: % Inh (13 μM) of S. pneumoniae Topoisomerase IV ATPase. The procedure, abridged:
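Phosphate release by ParE ATPase from S. pneumoniae read colorimetrically (malachite green, 650 nm), enzyme 1.25 nM, ATP 160 μM, salmon sperm DNA present, buffer 20 mM Tris pH 8.0 with 8 mM MgCl2. IC50 over 10 compound concentrations, EDTA (20 μM) and DMSO controls defining inhibition range.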
S. pneumoniae Topoisomerase IV ATPase (ParE), sequence (Q59961 whole entry): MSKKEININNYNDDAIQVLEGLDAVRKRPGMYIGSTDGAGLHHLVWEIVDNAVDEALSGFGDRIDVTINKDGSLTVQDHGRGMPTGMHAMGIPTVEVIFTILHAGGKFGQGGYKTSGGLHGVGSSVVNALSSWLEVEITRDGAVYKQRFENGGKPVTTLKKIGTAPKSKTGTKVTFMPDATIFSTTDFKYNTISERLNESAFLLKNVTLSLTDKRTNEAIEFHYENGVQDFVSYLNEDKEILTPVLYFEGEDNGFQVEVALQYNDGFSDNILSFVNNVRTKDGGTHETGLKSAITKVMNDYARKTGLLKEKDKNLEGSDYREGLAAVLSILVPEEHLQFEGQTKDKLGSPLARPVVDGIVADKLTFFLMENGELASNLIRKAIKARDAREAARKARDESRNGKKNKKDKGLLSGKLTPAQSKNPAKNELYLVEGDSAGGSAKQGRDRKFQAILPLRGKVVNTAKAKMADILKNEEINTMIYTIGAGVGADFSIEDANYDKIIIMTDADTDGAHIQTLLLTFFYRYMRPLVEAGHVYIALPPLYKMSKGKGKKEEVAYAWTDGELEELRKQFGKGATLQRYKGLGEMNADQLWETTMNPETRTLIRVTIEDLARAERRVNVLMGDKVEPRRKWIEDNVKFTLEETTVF
Turning to `Cc1cccc(Nc2ncc(-c3cccc(/C=C/C(=O)O)c3)c(-n3ccc(C(F)(F)F)n3)n2)c1` [Example 694, (2E)-3-(3-{2-[(3-methylphenyl)amino]-4-[3-(trifluoromethyl)-1H-pyrazol-1-yl]pyrimidin-5-yl}phenyl)prop-2-enoic acid], the inhibition at 13 µM is 100%. On to `CN(C)CCCNc1nc(Nc2cc(C(F)(F)F)cc(C(F)(F)F)c2)ncc1-c1ccc(C(=O)O)s1` [Example 341, 5-(2-(3,5-bis(trifluoromethyl)phenylamino)-4-(3-(dimethylamino)propylamino)pyrimidin-5-yl) thiophene-2-carboxylic acid], for which the inhibition at 13 µM was 87.2%. Take `O=C(O)c1cc(-c2cnc(Nc3ccc(F)c(Cl)c3)nc2N2CCOCC2)cc([N+](=O)[O-])c1` [Example 490, 3-{2-[(3-chloro-4-fluorophenyl)amino]-4-(morpholin-4-yl)pyrimidin-5-yl}-5-nitrobenzoic acid]: the inhibition at 13 µM was found to be 100%. Consider `COc1ccc(-c2cnc(Nc3ccc(F)c(Cl)c3)nc2-n2ccc(C(F)(F)F)n2)cc1C(N)=O` [Example 1106, 5-(2-(3-chloro-4-fluorophenylamino)-4-(3-(trifluoromethyl)-1H-pyrazol-1-yl)pyrimidin-5-yl)-2-methoxybenzamide], for which the inhibition at 13 µM was determined as 21%. Consider `CC1CN(c2nc(Nc3ccc(F)c(Cl)c3)ncc2-c2cccc(/C=C/C(=O)O)c2)CC(C)O1` (stereo not drawn) [Example 286, (E)-3-(3-(2-(3-chloro-4-fluorophenylamino)-4-(2,6-dimethylmorpholin-)-pyrimidin-5-yl)phenyl)acrylic acid], for which the inhibition at 13 µM was determined as 89.8%. Take `Fc1ccc(Nc2ncc(-c3cncnc3)c(N3CCOCC3)n2)cc1F` [Example 352]: the inhibition at 13 µM worked out at 26.7%.

For `O=S1(=O)CCN(CCNc2nc(Nc3ccc(F)c(Cl)c3)ncc2-c2cncnc2)CC1` [Example 47, N^2-(3-chloro-4-fluorophenyl)-N^4-[2-(1,1-dioxo-1,4-thiazinan-4-yl)ethyl]-5-pyrimidin-5-ylpyrimidine-2,4-diamine], the inhibition at 13 µM is 74.8%. Consider `COCCn1cc(C(=O)O)c(=O)c2cc(-c3cnc(Nc4ccc(F)c(Cl)c4)nc3NCCCN(C)C)ccc21` [Example 1057, 6-(2-(3-Chloro-4-fluorophenylamino)-4-(3-(dimethylamino)propylamino)pyrimidin-5-yl)-1-(2-methoxyethyl)-4-oxo-1,4-dihydroquinoline-3-carboxylic acid], for which the inhibition at 13 µM amounted to 83%. On to `N#Cc1cc(-c2cnc(Nc3ccc(F)c(Cl)c3)nc2-n2ccc(C(F)(F)F)n2)ccn1` [Example 890, 4-(2-(3-chloro-4-fluorophenylamino)-4-(3-(trifluoromethyl)-1H-pyrazol-1-yl)pyrimidin-5-yl)picolinonitrile], for which the inhibition at 13 µM was 91%. Consider `Cc1cc(C)cc(Nc2ncc(-c3cccc(/C=C/C(=O)O)c3)c(-n3nc(C(F)(F)F)cc3C)n2)c1` [Example 618, (2E)-3-(3-{2-[(3,5-dimethylphenyl)amino]-4-[5-methyl-3-(trifluoromethyl)-1H-pyrazol-1-yl]pyrimidin-5-yl}phenyl)prop-2-enoic acid], for which the inhibition at 13 µM worked out at 98%.

With `COc1cc(Nc2ncc(-c3cccc(/C=C/C(=O)O)c3)c(-n3ccc(C(F)(F)F)n3)n2)cc(OC)c1` [Example 615, (2E)-3-(3-{2-[(3,5-dimethoxyphenyl)amino]-4-[3-(trifluoromethyl)-1H-pyrazol-1-yl]pyrimidin-5-yl}phenyl)prop-2-enoic acid], the inhibition at 13 µM was found to be 100%.

`O=C(O)/C=C/c1cccc(-c2cnc(Nc3ccc(F)c(Cl)c3)nc2-n2cc(-c3ccncc3)cn2)c1` [Example 312, (2E)-3-(3-{2-[(3-chloro-4-fluorophenyl)amino]-4-[4-(pyridin-4-yl)-1H-pyrazol-1-yl]pyrimidin-5-yl}phenyl)prop-2-enoic acid]: the inhibition at 13 µM came out at 101%.

For the compound `COc1cc(Nc2ncc(-c3cnc(-n4ccnc4)c(C(=O)O)c3)c(-n3ccc(C(F)(F)F)n3)n2)cc(OC)c1` [Example 590, 5-(2-(3,5-dimethoxyphenylamino)-4-(3-(trifluoromethyl)-1H-pyrazol-1-yl)pyrimidin-5-yl)-2-(1H-imidazol-1-yl)nicotinic acid], the inhibition at 13 µM was 100%. The value for `Cc1cc(C(F)(F)F)nn1-c1nc(Nc2ccc(F)c(Cl)c2)ncc1-c1ccc2c(c1)C(=O)NC2=O` [Example 1042, 5-(2-(3-Chloro-4-fluorophenylamino)-4-(5-methyl-3-(trifluoromethyl)-1H-pyrazol-1-yl)pyrimidin-5-yl)isoindoline-1,3-dione] was 49%.

Take `COc1cc(C)cc(Nc2ncc(-c3cnc(OC)c(-c4n[nH]c(=O)o4)c3)c(-n3ccc(C(F)(F)F)n3)n2)c1` [Example 1169, 5-(2-methoxy-5-{2-[(3-methoxy-5-methylphenyl)amino]-4-[3-(trifluoromethyl)-1H-pyrazol-1-yl]pyrimidin-5-yl}pyridin-3-yl)-1,3,4-oxadiazol-2(3H)-one]: the inhibition at 13 µM is 100%.

For `COc1cc(C)cc(Nc2ncc(-c3cc(C(=O)O)c(=O)n(C)c3)c(-n3ccc(C(F)(F)F)n3)n2)c1` [Example 859, 5-{2-[(3-methoxy-5-methylphenyl)amino]-4-[3-(trifluoromethyl)-1H-pyrazol-1-yl]pyrimidin-5-yl}-1-methyl-2-oxo-1,2-dihydropyridine-3-carboxylic acid], the inhibition at 13 µM worked out at 100%. Regarding `COc1ncc(-c2cnc(Nc3cccc(Cl)c3)nc2-n2ccc(C(F)(F)F)n2)cc1C(=O)O` [Example 742, 5-{2-[(3-chlorophenyl)amino]-4-[3-(trifluoromethyl)-1H-pyrazol-1-yl]pyrimidin-5-yl}-2-methoxypyridine-3-carboxylic acid], the inhibition at 13 µM amounted to 100%. On to `COc1ccc(-c2cnc(Nc3ccc(F)c(Cl)c3)nc2-n2ccc(C(F)(F)F)n2)cc1C(=O)O` [Example 1074, 5-(2-(3-Chloro-4-fluorophenylamino)-4-(3-(trifluoromethyl)-1H-pyrazol-1-yl)pyrimidin-5-yl)-2-methoxybenzoic acid], for which the inhibition at 13 µM is 100%.

As to `Cc1cnc(C(=O)NCCCNc2nc(Nc3ccc(F)c(Cl)c3)ncc2-c2cccc(/C=C/C(=O)O)c2)cn1` [Example 292, (E)-3-(3-(2-(3-chloro-4-fluorophenylamino)-4-(3-(5-methylpyrazine-2-carboxamido)propylamino)-pyrimidin-5-yl)phenyl)acrylic acid], the inhibition at 13 µM turned out to be 81%. For `CS(=O)(=O)NC(=O)c1cncc(-c2cnc(Nc3ccc(F)c(Cl)c3)nc2-n2ccc(C(F)(F)F)n2)c1` [Example 874, 5-(2-(3-chloro-4-fluorophenylamino)-4-(3-(trifluoromethyl)-1H-pyrazol-1-yl)pyrimidin-5-yl)-N-(methylsulfonyl)nicotinamide], the inhibition at 13 µM is 100%. On to `COc1cc(F)cc(Nc2ncc(-c3cncc(C(=O)O)c3)c(-n3ccc(C(F)(F)F)n3)n2)c1` [Example 914, 5-(2-(3-fluoro-5-methoxyphenylamino)-4-(3-(trifluoromthyl)-1H-pyrazol-1-yl)pyrimidin-5-yl)nicotinic acid], for which the inhibition at 13 µM was found to be 100%. `Fc1ccc(Nc2ncc(-c3cncnc3)c(NCCc3c[nH]cn3)n2)cc1Cl` [Example 471, N^2-(3-chloro-4-fluorophenyl)-N^4-[2-(1H-imidazol-4-yl)ethyl]-5,5′-bipyrimidine-2,4-diamine]: the inhibition at 13 µM is 84%. For the compound `Fc1ccc(Nc2ncc(-c3cncnc3)c(-n3cccc3)n2)cc1Cl` [Example 73, N-(3-chloro-4-fluorophenyl)-4-(1H-pyrrol-1-yl)-5,5′-bipyrimidin-2-amine], the inhibition at 13 µM was 89.6%.

As to `COCCNc1ncc(-c2cnc(Nc3ccc(F)c(Cl)c3)nc2-n2nc(C(F)(F)F)cc2C)cc1C(=O)O` [Example 1080, 5-(2-(3-Chloro-4-fluorophenylamino)-4-(5-methyl-3-(trifluoromethyl)-1H-pyrazol-1-yl)pyrimidin-5-yl)-2-(2-methoxyethylamino)nicotinic acid], the inhibition at 13 µM is 100%. For the compound `Cc1cc(C(F)(F)F)nn1-c1nc(Nc2ccc3c(c2)OCO3)ncc1-c1cccc(/C=C/C(=O)O)c1` [Example 658, (2E)-3-(3-{2-(1,3-benzodioxol-5-ylamino)-4-[5-methyl-3-(trifluoromethyl)-1H-pyrazol-1-yl]pyrimidin-5-yl}phenyl)prop-2-enoic acid], the inhibition at 13 µM was 96%. With `O=C(O)c1cncc(-c2cnc(Nc3ccc(F)c(Cl)c3)nc2N[C@@H]2CCOC2)c1` [Example 279, (R)-5-(2-(3-chloro-4-fluorophenylamino)-4-(tetrahydrofuran-3-ylamino)pyrimidin-5-yl)nicotinic acid], the inhibition at 13 µM turned out to be 80.4%. Consider `Fc1ccc(Nc2ncc(-c3cncnc3)c(N3CCOCC3)n2)cc1Cl` [Example 76, N-(3-chloro-4-fluorophenyl)-4-morpholin-5,5′-bipyrimidin-2-amine], for which the inhibition at 13 µM is 79.3%. Turning to `CNC(=O)c1cc(-c2cnc(Nc3ccc(F)c(Cl)c3)nc2-n2ccc(C(F)(F)F)n2)cnc1OC` [Example 1100, 5-(2-(3-chloro-4-fluorophenylamino)-4-(3-(trifluoromethyl)-1H-pyrazol-1-yl)pyrimidin-5-yl)-2-methoxy-N-methylnicotinamide], the inhibition at 13 µM was determined as 75%.

As to `COCC(COC)Nc1nc(Nc2ccc(F)c(Cl)c2)ncc1-c1cncc(C(=O)O)c1` [Example 283, 5-(2-(3-chloro-4-fluorophenylamino)-4-(1,3-dimethoxypropan-2-ylamino)pyrimidin-5-yl)nicotinic acid], the inhibition at 13 µM turned out to be 89.9%.

With `Fc1ccc(Nc2ncc(-c3cncnc3)c(N3CCCCCC3)n2)cc1Cl` [Example 213, 4-(azepan-1-yl)-N-(3-chloro-4-fluorophenyl)-5-pyrimidin-5-ylpyrimidin-2-amine], the inhibition at 13 µM was determined as 55.8%.

These data come from US20100137313A1 (ASTRAZENECA AB, priority 2008, published 2010).
